Results as given in PMC9828538, “Antigiardial Activity of Novel Guanidine Compounds” (Chemmedchem, 2022).
pIC50: −log10 of the molar value. Converted amounts (≈) assume the structure as drawn. Counter-ions that a name gives are not always drawn. Like-named read-outs stand apart in the source and are kept apart here.

Assays:
[1] = tested on: Giardia duodenalis trophozoites (BAH2c2 strain); assay: Resazurin reduction assay on Giardia trophozoites in vitro; type: cell-based; conditions: for MIC: minimum inhibitory concentration, read-out: Antigiardial activity MIC (24 h); for Selectivity ratio: higher ratios = more selective; for Antigiardial activity at 5 h: 25 μM; for Antigiardial activity MLC (24 h): minimum lethal concentration
Description: (§1) Biology Materials and Methods:
Metronidazole was sourced from sigma.
Chemicals used for the culture of Giardia in vitro were sourced as follows: glucose and L-cysteine (ACROS organics, Thermo Fisher Scientific, Scoresby, Vic), Ammonium Iron (III) citrate, ascorbic Acid (Sigma -aldrich, Castle Hill, NSW), potassium dihydrogen orthophosphate (UNIVAR, Ingleburn, NSW), bovine bi le (Fluka analytical (BD)), di-potassium hydrogen orthophosphate (Fronine laboratory supplies, Riverstone, NSW).
G. duodenalis (BAH2c2 strain) was cultivated according to the method of Clark and Diamond in Keister’s modified TYI-S-33 medium, supplemented with heat inactivated foetal bovine serum (Hyclone™, Thermo Scientific, Scoresby, Vic) at 37°C in plastic 9 mL screw-capped test tubes (nunc). Subcultures were performed once a confluent monolayer was observed, approximately 2 – 3 times per week (Clark and Diamond, 2002).
(§2) CaCo-2 cells, a human cell line derived from a primary colonic tumour, were sourced from Cellbank Australia and were maintained in MEM supplemented with 2 mM glutamine, 1% non-essential amino acids and 10% FCS (Thermo Scientific). Cells were passaged when confluent, approximately 1-2 times per week. Vero cells were also obtained from Cellbank Australia and maintained as above.
(§3) In vitro drug efficacy assays
Resazurin Reduction Assay […]
tested to identify the IC50 and minimum lethal concentration (MLC). For all assays the media of confluent cultures was replaced with fresh media and the cultures were placed on ice for 40 minutes to detach trophozoites.
Trophozoites were enumerated using a haemocytometer and 50 000 trophozoites were added to each test well of a 96 well plate. Either single concentrations (final concentration 25 μM) for the screening assay or tripling dilutions […]
wells. The assays were repeated in triplicate with metronidazole and a DMSO (vehicle only) used as controls. Plates were incubated under anaerobic conditions (anaerogen sachet, Thermofisher scientific) for 5 or 24 hours at 37°C following which the viability of treated cells was determined using the resazurin reduction assay (Benere et al., 2007). The media was removed and replaced with an equal volume of warm PBS. Resazurin (Sigma) was then added at 10% of the total volume of the wells. Plates were further incubated for colour development and absorbance read at 570 nm and 630 nm. Resazurin reduction was calculated according to the following formula: […]
(§4) CaCo-2 or Vero cells, maintained as outlined above, were collected via trypsinisation and enumerated using trypan blue and a haemocytometer. Select analogues were prepared in DMSO so that the final concentration in the assay was 25 μM. 1 X 10^5 cells/ml were added to each assay with the appropriate drug dilution. Assays were completed in 96 well plates and incubated for 24 hours at 37°C, 5% CO2 in a humidified incubator. After incubation cells were […]
(§5) washed with warm PBS before the addition of 10% resazurin in PBS. Assays were incubated to allow colour development and absorbance read at 630 and 570nm. Activity of the analogues against mammalian cells was calculated according to the formula stated above.

[2] = tested on: CaCo-2 cells; conditions: human, 24 h, 25 μM
Protocol: (§6) Biology Materials and Methods: […]
as §2
(§7) In vitro drug efficacy assays […]
(§8) 2007). The media was removed and replaced with an equal volume of warm PBS. Resazurin (Sigma) was then added at 10% of the total volume of the wells. Plates were further incubated for colour development and absorbance read at 570 nm and 630 nm. Resazurin reduction was calculated according to the following formula: […]
as §4, §5

[3] = tested on: Vero cells; assay: In vitro cytotoxicity, Vero cells; conditions: 25 μM; for Toxicity (% growth control): Percent Vero cell growth; for Toxicity (% growth control) / Toxicity (Y/N): 24 h
Protocol: as §6, §2, §7
as §8, with “The” for “2007). The”
CaCo-2 or Vero cells, maintained as outlined above, were collected via trypsinisation and enumerated using trypan blue and a haemocytometer. Select analogues were prepared in DMSO so that the final concentration in the assay […]
in 96 well plates and incubated for 24 hours at 37°C, 5% CO2 in a humidified incubator. After incubation cells were […]
washed with warm PBS before the addition of 10% resazurin in PBS. Assays were incubated to allow colour development and absorbance read at 630 and 570nm. Activity of the analogues against mammalian cells was calculated according to the formula stated above. […]
reduction assay the mean and standard error of the mean was determined with each assay completed in triplicate.
The IC50 was calculated using the log (inhibitor) vs. normalised response – variable slope function in Graphpad […]

[4] = tested on: Giardia; design: method as in PMID 14585063; conditions: drug treatment of Giardia infection; cited from earlier work
[5] = tested on: Escherichia coli; assay: Antibacterial activity against gram negative bacteria (E. coli); type: cell-based
Protocol: as §1
Metronidazole was sourced from sigma. […]
hydrogen orthophosphate (Fronine laboratory supplies, Riverstone, NSW).
Subcultures were performed once a confluent
Scientific). […] Vero cells were also obtained from Cellbank Australia and maintained as above.
as §3
Resazurin Reduction Assay
For all assays the media of confluent cultures
2007). […] Resazurin (Sigma) was then
Plates were further incubated for colour development and absorbance read at 570 nm and 630 nm. Resazurin reduction was calculated according to the following formula: […]
broth for a random selection of compounds (Thermofisher Scientific). Compounds were diluted in DMSO to 100X […]
Cells were incubated for 18-24 hrs before interpretation of results. […]
blue and a haemocytometer. […]
was 25 μM. […] Assays were completed
After incubation cells were […]

[6] = Giardia duodenalis, 24 h, read-out: Antigiardial activity IC50 (24 h)
[7] = toxicity tested at 25 μM vs 24 h IC50, Tables 1-3
[8] = Vero cells, Tables 1-3 (toxic if >20 % cells affected)
[9] = 24 h, read-out: Antigiardial activity IC50 (24 h)
[10] = Giardia duodenalis, 5 h, read-out: Antigiardial activity IC50 (5 h)
[11] = toxicity tested at 25 μM vs 5 h IC50, Table 4
[12] = Vero cells, Table 4 (toxic if >10 % cells affected)

| pIC50 [1, 6] | MIC ([1]; Giardia duodenalis, 24 h) [µM] | SMILES | also measured |
| --- | --- | --- | --- |
| < 4.60 | > 25 | N=C(NN=Cc1cccc(F)c1)NN=Cc1cccc(F)c1 [Compound 10] | – |
| 5.55 | > 25 | Cl.N=C(NN=Cc1ccccc1-c1ccccc1)NN=Cc1ccccc1-c1ccccc1 [Compound 18] | Toxicity (% growth control) [2]: 75.4±3.4%; Selectivity ratio [1, 7]: >8.9 |
| < 4.60 | – | COc1cccc(C=NNC(=N)NN=Cc2cccc(OC)c2)c1 [Compound 25] | – |
| – | – | Cl.N=C(NN=Cc1c(F)c(F)c(F)c(F)c1F)NN=Cc1c(F)c(F)c(F)c(F)c1F [Compound 39] | Antigiardial activity at 5 h ([1]; 5 h): inactive |
| < 4.60 | – | N=C(NN=Cc1ccccc1O)NN=Cc1ccccc1O [Compound 29] | – |
| < 4.60 | > 25 | Cl.N=C(NN=Cc1ccccc1F)NN=Cc1ccccc1F [Compound 13] | Toxicity (% growth control) [3]: 93.9±1.9%; Toxicity (Y/N) [3, 8]: N (compounds are indicated as toxic if >20 % cells are affected) |
| 5.49 | 8.3 (≈ 3.13 µg/mL) | CC(C)(C)c1ccc(C=NNC(=N)NN=Cc2ccc(C(C)(C)C)cc2)cc1 [Compound 22] | – |
| 5.92 | 25 (≈ 7.83 µg/mL) | C#Cc1cccc(C=NNC(=N)NN=Cc2cccc(C#C)c2)c1 [Compound 23] | – |
| – | – | CCS(=O)(=O)CCn1c([N+](=O)[O-])cnc1C [tinidazole] | treatment success / reported efficacy [4]: 80–90% |
| 5.31 | 6.25 (≈ 1.83 µg/mL) | Cc1cccc(C=NNC(=N)NN=Cc2cccc(C)c2)c1 [Compound 15] | – |
| 6.10 | 25 | Cl.N=C(NN=Cc1ccccc1Br)NN=Cc1ccccc1Br [Compound 11] | Toxicity (% growth control) [2]: 79.1±2.3%; Selectivity ratio [1, 7]: >31.3; Activity against gram negative bacteria / E. coli [5]: no antibacterial activity |
| – | – | CN(C)c1ccc(C=NN=C(N)NN=Cc2ccc(N(C)C)cc2)cc1 [Compound 33] | Antigiardial activity MLC (24 h) ([1]; 24 h): 25 µM; pIC50 [1, 9]: 5.96 |
| < 4.60 | – | N=C(NN=Cc1cccc(O)c1)NN=Cc1cccc(O)c1 [Compound 28] | – |
| 6.05 | – | CSc1ccc(C=NNC(=N)NN=Cc2ccc(SC)cc2)cc1 [Compound 31] | – |
| 4.91 | 25 | Cl.N=C(NN=Cc1ccccc1Cl)NN=Cc1ccccc1Cl [Compound 12] | Activity against gram negative bacteria / E. coli [5]: no antibacterial activity |
| – | 25 (≈ 7.33 µg/mL) | Cc1ccccc1C=NNC(=N)NN=Cc1ccccc1C [Compound 16] | – |
| 5.54 | 25 (≈ 10.6 µg/mL) | N=C(NN=Cc1cccc(Br)c1)NN=Cc1cccc(Br)c1 [Compound 9] | – |
| 5.46 | 6.25 (≈ 2.09 µg/mL) | N=C(NN=Cc1cccc(Cl)c1)NN=Cc1cccc(Cl)c1 [Compound 8] | – |
| 5.42 | 8.3 (≈ 1.42 µg/mL) | Cc1ncc([N+](=O)[O-])n1CCO [Metronidazole, metronidazole, reference compound] | Antigiardial activity at 5 h ([1]; 5 h): inactive; Selectivity ratio [1, 7]: >6.6; treatment success / reported efficacy [4]: 80–90% |

| pIC50 [1, 6] | MIC ([1]; Giardia duodenalis, 24 h) [µM] | SMILES | also measured |
| --- | --- | --- | --- |
| 5.72 | 6.25 (≈ 2.18 µg/mL) | CC(C)c1ccc(C=NNC(=N)NN=Cc2ccc(C(C)C)cc2)cc1 [Compound 21] | – |
| – | – | CC(=O)Nc1cc(Cl)ccc1C=NNC(=N)NN=Cc1ccc(Cl)cc1NC(C)=O.Cl [Compound 40] | Toxicity (% growth control) [2]: 83.1±4.4%; pIC50 [1, 10]: 6.10; Selectivity ratio [1, 11]: >31.3 |
| 6.70 | – | N=C(NN=Cc1ccc(SC(F)(F)F)cc1)NN=Cc1ccc(SC(F)(F)F)cc1 [Compound 32, 2,2′‐bis{[4‐(trifluoromethylsulfanyl)phenyl]methylene}carbonimidic dihydrazide hydrochloride] | – |
| – | – | Cl.N=C(NN=Cc1cc(F)ccc1F)NN=Cc1cc(F)ccc1F [Compound 37] | Antigiardial activity at 5 h ([1]; 5 h): inactive |
| – | – | CCCSc1ccc2nc(NC(=O)OC)[nH]c2c1 [albendazole] | treatment success / reported efficacy [4]: 62–95% |
| – | – | COc1ccccc1C=NNC(=N)NN=Cc1ccccc1OC.Cl [Compound 26] | Antigiardial activity MLC (24 h) ([1]; 24 h): >25 µM; pIC50 [1, 9]: < 4.60 |
| 6.70 | – | N=C(NN=Cc1ccc(OC(F)(F)F)cc1)NN=Cc1ccc(OC(F)(F)F)cc1 [Compound 30, 2,2′‐bis{[4‐(trifluoromethoxy)phenyl]methylene}carbonimidic dihydrazide hydrochloride] | – |
| – | – | COc1ccc(C=NNC(=N)NN=Cc2ccc(OC)c(OC)c2)cc1OC [Compound 44] | pIC50 ([1]; 5 h, read-out: Antigiardial activity IC50 (5 h)): 4.60; pIC50 [1, 10]: ≥ 4.60 |
| 6.40 | 2.8 (≈ 1.17 µg/mL) | N=C(NN=Cc1ccc(-c2ccccc2)cc1)NN=Cc1ccc(-c2ccccc2)cc1 [Compound 17] | – |
| – | 25 (≈ 7.33 µg/mL) | Cc1ccc(C=NNC(=N)NN=Cc2ccc(C)cc2)cc1 [Compound 14] | – |
| – | – | COc1cc(C=NNC(=N)NN=Cc2ccc(O)c(OC)c2)ccc1O [Compound 47] | pIC50 [1, 10]: < 4.60 |
| 5.72 | 8.3 (≈ 3.13 µg/mL) | CCCCc1ccc(C=NNC(=N)NN=Cc2ccc(CCCC)cc2)cc1 [Compound 20] | – |
| 5.77 | 8.3 | Cl.N=C(NN=Cc1ccc(Br)cc1)NN=Cc1ccc(Br)cc1 [Compound 6] | cell death ([3]; Vero cells): < 10%; Toxicity (% growth control) [2]: 97.1±1.6%; cell death [2]: < 10%; Selectivity ratio [1, 7]: >14.7; Activity against gram negative bacteria / E. coli [5]: no antibacterial activity |
| – | – | Cl.N=C(NN=Cc1ccc(Cl)cc1Cl)NN=Cc1ccc(Cl)cc1Cl [Compound 34] | Toxicity (% growth control) [3]: 55.8±4.3%; Toxicity (Y/N) [3, 12]: Y (compounds are indicated as toxic if >10 % cells are affected); Selectivity ratio [1, 11]: >10.0 |
| < 4.60 | – | N=C(NN=Cc1ccc(O)cc1)NN=Cc1ccc(O)cc1 [Compound 27] | – |
| 6.10 | 8.3 (≈ 2.9 µg/mL) | CCCc1ccc(C=NNC(=N)NN=Cc2ccc(CCC)cc2)cc1 [Compound 19] | – |
| – | – | COc1cc(C=NNC(=N)NN=Cc2cc(Br)c(OC)c(OC)c2)cc(Br)c1OC.Cl [Compound 42] | Toxicity (Y/N) [3, 12]: Y^[e] (compounds are indicated as toxic if >10 % cells are affected); pIC50 [1, 10]: 5.57; Selectivity ratio [1, 11]: >9.3 |
| 5.19 | 12.5 (≈ 3.77 µg/mL) | N=C(NN=Cc1ccc(F)cc1)NN=Cc1ccc(F)cc1 [Compound 7] | – |

| SMILES | pIC50 [1, 6] | MIC ([1]; Giardia duodenalis, 24 h) [µM] | also measured |
| --- | --- | --- | --- |
| COc1ccc(C=NNC(=N)NN=Cc2ccc(OC)cc2)cc1.Cl [Compound 24] | 5.22 | – | Toxicity (Y/N) [3, 8]: Y^[e] (compounds are indicated as toxic if >20 % cells are affected); Selectivity ratio [1, 7]: >4.2 |
